By pKd is commonly meant −log10 of the Kd, conventionally taken in molar units.

Consider one sequence from US20110230367A1, “Amphiphilic Peptides Promoting Production of Target miRNA and Method of Regulating Production of Target miRNA” (SNU R&DB FOUNDATION, priority 2009, published 2011).

pKd: −log10 of the molar value.

In assay [1] the test system is recombinant human Dicer processing pre-let7a-1. Nature of the assay: Dicer activity assay in the presence of peptide, substrate pre-let7a-1. The settings on record: 400 nM peptide, pre-let7a-1 substrate, FIG. 2. The class given is biochemical. The protocol:
Two types of pre-miRNA (pre-let7a-1, pre-miR16-1) used as the substrate for the Dicer enzyme activity assay was ordered and manufactured by ST Pharm Co., Ltd (FIG. 1). For Dicer activity assay, the 5′ end of the synthesized pre-miRNA was labeled with ^32p isotope. Two pmole of each pre-miRNA was isotope labeled with […] of [g-^32P]ATP (New England Biolabs) using 10 units of T4 polynucleotide kinase (New England Biolabs). Total volume of 10 μl was isotope labeled for 1 hr at 37° C. The isotope labeled RNA obtained after the reaction was purified using G-25 Sephadex column (Sigma). The purified substrate was used for measuring Dicer enzyme activity. Total reaction mixture of 30 μl containing 1 nM of isotope labeled pre-miRNA and 0.001 u/μl of recombinant human Dicer (Genlantis, CA, USA) were incubated at 37° C. in 24 mM 4-(2-hydroxyethyl)-1-piperazineethanesulfonic acid, HEPES) buffer system containing 200 mM NaCl, 0.04 mM EDTA, 1 mM ATP and 2.5 mM MgCl2(pH 8.0). After reacting for 0, 10, 30, […], 3 μl of each reaction mixture was mixed with 5 μl of RNA gel loading buffer {95% formamide, 10 mM ethylenediaminetetraacetic acid (EDTA), 0.05% FF (xylene cyanol FF)} and incubated for 5 min at 65° C. The amount of the reaction product was determined by gel running in 15% polyacrylamide gel containing 7M urea, and then the initial reaction velocity (V0) from each reaction was compared. The initial reaction velocity (V0) of the enzyme is the reaction velocity of the initial linear time (until 30 min). Each initial velocity was normalized with the initial velocity from each substrate condition without peptide treatment. The initial reaction velocity of Dicer for pre-let7a-1 and pre-miR16-1 without peptide treatment were […] and 0.018 fmole/min, respectively. Each of the initial reaction velocity is a mean data of more than 3 measurements, and the standard deviation is shown as error bars.

Assay [2] has as its system recombinant human Dicer processing pre-miR16-1. Nature of the assay: Dicer activity assay in the presence of peptide, substrate pre-miR16-1. It is filed as biochemical. Conditions: 400 nM peptide, pre-miR16-1 substrate, FIG. 2. The method, then:
Two types of pre-miRNA (pre-let7a-1, pre-miR16-1) used as the substrate for the Dicer enzyme activity assay was ordered and manufactured by ST Pharm Co., Ltd (FIG. 1). For Dicer activity assay, the 5′ end of the synthesized pre-miRNA was labeled with ^32p isotope. Two pmole of each pre-miRNA was isotope labeled with […] of [g-^32P]ATP (New England Biolabs) using 10 units of T4 polynucleotide kinase (New England Biolabs). Total volume of 10 μl was isotope labeled for 1 hr at 37° C. The isotope labeled RNA obtained after the reaction was purified using G-25 Sephadex column (Sigma). The purified substrate was used for measuring Dicer enzyme activity. Total reaction mixture of 30 μl containing 1 nM of isotope labeled pre-miRNA and 0.001 u/μl of recombinant human Dicer (Genlantis, CA, USA) were incubated at 37° C. in 24 mM 4-(2-hydroxyethyl)-1-piperazineethanesulfonic acid, HEPES) buffer system containing 200 mM NaCl, 0.04 mM EDTA, 1 mM ATP and 2.5 mM MgCl2(pH 8.0). After reacting for 0, 10, 30, 60 or 120 min in the presence of 400 nM concentration of 2b or 2c peptide, 3 μl of each reaction mixture was mixed with 5 μl of RNA gel loading buffer {95% formamide, 10 mM ethylenediaminetetraacetic acid (EDTA), 0.05% FF (xylene cyanol FF)} and incubated for 5 min at 65° C. The amount of the reaction product was determined by gel running in 15% polyacrylamide gel containing 7M urea, and then the initial reaction velocity (V0) from each reaction was compared. The initial reaction velocity (V0) of the enzyme is the reaction velocity of the initial linear time (until 30 min). Each initial velocity was normalized with the initial velocity from each substrate condition without peptide treatment. The initial reaction velocity of Dicer for pre-let7a-1 and pre-miR16-1 without peptide treatment were […] and 0.018 fmole/min, respectively. Each of the initial reaction velocity is a mean data of more than 3 measurements, and the standard deviation is shown as error bars.

Assay [3] addresses pre-let7a-1. Nature of the assay: Dissociation constant by competitive fluorescence anisotropy with rhodamine-rev peptide probe. The class given is binding. Conditions: Table 3, first generation peptides, 20° C., HEPES pH 7.5; read-out: Kd value with pre-let7a-1. The protocol:
(§1) The binding affinity between the peptide synthesized in <Example 1> and pre-miRNA from <Example 2> were measured by fluorescence anisotropy using competitive binding method. A rev peptide with rhodamine attached at the N-terminal was used as a fluorescent probe and LS-55 luminescence spectrometer from Perkin-Elmer was use for analysis. A constant temperature of 20° C. was maintained by a water bath. The fluorescent intensity was measured by of 200 nM of rhodamine-rev peptide was measured with an excitation wavelength at 550 nm (band path 10 nm) and detection at 580 nm (band path 10 nm). The integration time […]. Each experimental value is the mean value of 5 measurements. A 20 mM of HEPES{4-(2-hydroxyethyl)-1-piperazineethanesulfonic acid} buffer (pH 7.5) containing 140 mM NaCl, 5 mM KCl and 1 mM MgCl2 was used for measuring the dissociation constant. The dissociation constant was determined according to the Mathematical Formula 1 and using Kaledia graph.
(§2) A and Ao are the fluorescence anistropy in the presence or absence of RNA, whereas ΔA is the difference between these two values. [RNA]0 and [Rh-rev]0 are initial concentrations of RNA and rev peptide binding with rhodamine.
(§3) According the method described in <Example 3>, the dissociation constant between second generation peptide and 2 pre-miRNAs synthesized from <Example 2> was determined using fluorescent polarization detection method and fluorescent probe molecule.
(In general: Polarisation of emitted light reports the rotation of a fluorescent probe.)

Assay [4] deals with pre-miR16-1. The assay is described as above. It is filed as binding. The settings on record: Table 3, first generation peptides, 20° C., HEPES pH 7.5; read-out: Kd value with pre-miR16-1. The method, then: as §1, §2, §3

With “LKKLLKLWKKLLKLAG [Peptide 1e, Ac-LKKLLKLWKKLLKLAG]”, the “initial reaction velocity (V0) of Dicer, normalized to no peptide” value in assay [1] and in assay [2] was “did not increase” in each case. Moreover, the pKd was 7.70 in assay [3] and 7.57 in assay [4].
